{"source": "patent US9585388B2", "about": "“Synergistically acting ternary antimicrobial mixtures” (SYMRISE AG, priority 2011, dated 2017)", "data": [{"test_system": "Aspergillus niger ATCC 16404", "test": "Test for adequate preservation (European Pharmacopoeia) in O/W emulsion, CFU reduction", "format": "cell-based", "settings": "total concentration used 1 wt % in O/W emulsion, pH 5.5, initial CFU 1200000", "text": "In case of doubt, antimicrobial efficacy in the sense of this text is present when adequate preservation is established according to the European Pharmacopoeia (ISBN 3-7692-2768-9; Supplement 2001 to the 3rd Edition, page 421-422, chapter 5.1.3). The microbe preferably to be used is preferably Aspergillus niger ATCC16404. For further information on the procedure for testing for antimicrobial efficacy, reference is made in particular to example 1 given below.\nSynergistic intensification (of antimicrobial action) is present when the synergy index (SI value) of the test mixture according to Kull (literature: F. C. Kull et al., Applied Microbiology Vol. 9, p. 538-541 (1961); D. C. Steinberg, Cosmetics & Toiletries Vol. 115(11), 59-62 (2000)) gives a value <1. For further information on calculation of the synergy index, reference is again made to example 1 given below. Once again, the microbe preferably to be used for determining the synergy index is the strain of Aspergillus niger stated above.\nThe test for adequate preservation was carried out according to the European Pharmacopoeia. […]\nTo determine the potentially synergistically intensified efficacy of ternary mixtures containing 2-phenoxyethanol, 1,2-decanediol and 1,2-hexanediol, the CFU-reducing properties were determined according to the test procedure described in example 1 for the individual substances, for various binary mixtures and for ternary mixtures according to the invention.\nThe synergy index (SI values) of the ternary mixtures according to the invention and binary mixtures not according to the invention according to Kull (literature: F. C. Kull et al., Applied Microbiology Vol. 9, p. 538-541 (1961); D. C. Steinberg, Cosmetics & Toiletries Vol. 115(11), 59-62 (2000) was calculated using the following equations. SI=Z*D/A+Z*E/B Binary mixtures: SI=Z*D/A+Z*E/B+Z*F/C Ternary mixture: wherein: D, E, F: factor of proportion of the individual constituents (e.g. 70 wt %=factor 0.70) A, B, C: CFU of the individual substances at time point 48 h Z: CFU of the binary/ternary mixture at time point 48 h […]", "units": {"Aspergillus niger CFU after 48 h": "CFU"}, "values": [{"molecule": "OCCOc1ccccc1", "note": "[product A, 2-phenoxyethanol]", "Aspergillus niger CFU after 48 h": 1100000}, {"molecule": "CCCCCCCCC(O)CO", "note": "(stereo not drawn) [product B, 1,2-decanediol]", "Aspergillus niger CFU after 48 h": 1200000}, {"molecule": "CCCCC(O)CO", "note": "(stereo not drawn) [product C, 1,2-hexanediol]", "Aspergillus niger CFU after 48 h": 1000000}]}]}
